Reference: patent US10730864B2, “RAD51 inhibitors and uses thereof” (THE REGENTS OF THE UNIVERSITY OF CALIFORNIA, priority 2015, dated 2020)
Entries after “also recorded” stand apart in the source; their conditions may differ. Read-outs that look alike come from different tables or passages of the source.

Assays:
[1] = tested on: human mammary gland normal epithelial cell line MCF10A; test: XTT growth inhibition assay, MCF10A normal control; format: cell-based; conditions: MCF-10A
Procedure: (§1) Standard XTT assays with a four-day drug treatment procedure were performed to measure the dose dependent cytotoxicity of IBR analogs in cultured cells. In brief, cells were plated on 96-well dishes one day before the drug treatment, followed by drug treatment on day 2 and XTT assay on day 6 after drug addition by using a commercial cell proliferation kit (Roche Scientific) following the instructions.
(§2) Triplicate sets were measured and compiled for final data presentation.
(§3) The growth inhibition of a panel of cancer cell lines was tested against IBR120 using an XTT assay. These cell lines included human Chronic Myelogenous Leukemia cell line K562, human breast cancer cell lines MCF7, MDA-MB-231, MDA-MB-361, MDA-MB-435, MDA-MB-468, Hs578-T, and T47D, human Osteosarcoma cell line U2OS, human Glioblastoma cell line T98G, human Cervical Cancer cell line HeLa, as well as human mammary gland normal epithelial cell line MCF10A as normal control.

[2] = tested on: panel of cancer cell lines; test: XTT growth inhibition assay, panel of cancer cell lines (summary); format: cell-based, human
Procedure: as §1, §2, §3

[3] = tested on: human Osteosarcoma cell line U2OS; test: XTT growth inhibition assay, U2OS; format: cell-based
Procedure: as §1, §2, §3

[4] = tested on: human breast cancer cell line MDA-MB-231; test: XTT growth inhibition assay, MDA-MB-231; format: cell-based; conditions: MDA-MB-231, Mammary Gland Adenocarcinoma
Procedure: as §1, §2, §3

RAD51 = molecular target: T1, RAD51 (Homo sapiens, UniProt Q06609); test: Multimer formation assay (gel filtration); format: biochemical; conditions: RAD51:IBR120 1:10 molar ratio, gel filtration profile
T1 sequence (Q06609 1-339): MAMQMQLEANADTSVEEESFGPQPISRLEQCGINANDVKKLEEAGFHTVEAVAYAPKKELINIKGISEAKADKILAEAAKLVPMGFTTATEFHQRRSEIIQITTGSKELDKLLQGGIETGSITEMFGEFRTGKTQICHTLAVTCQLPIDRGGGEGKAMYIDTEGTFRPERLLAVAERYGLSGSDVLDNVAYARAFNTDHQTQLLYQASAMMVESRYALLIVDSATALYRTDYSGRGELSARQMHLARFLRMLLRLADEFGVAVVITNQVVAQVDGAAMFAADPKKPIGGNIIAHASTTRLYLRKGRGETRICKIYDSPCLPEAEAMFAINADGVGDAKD
Procedure: A mixture of RAD51 (3.2 μg) and IBR120 (1:10 molar ratio) was incubated for 15 min at 37° C., supplemented with buffer (50 mM triethanolamine-HCl [pH7.5], 0.5 mM Mg(OAc)2, 1 mM DTT, 2 mM ATP and 100 μg/ml BSA, total volume 20 μl) and incubated for 15 min. The mixture was loaded onto a 2.4 ml Superdex 200 PC 3.2/30 column (Pharmacia) equilibrated with the same buffer as previously described (Zhu et al., 2013, EMBO Mol. Med. 5:1-13; Pierce et al., 1999, Genes Dev. 13:2633-2638). Fractions (50 μl) were collected and 0.5 μl of each fraction was blotted onto PVDF membrane. RAD51 was detected using anti-RAD51 antibody (mAb 14B4, GeneTex)
On the RAD51 core domain, a hydrophobic pocket formed between β-strand B3 and α-helix A4 of RAD51 is critical for RAD51 multimerization (Pellegrini et al., 2002, Nature 420:287-293). It was hypothesized that IBR compounds should be able to inhibit RAD51 multimerization. In order to test this hypothesis, the gel filtration profile of RAD51 multimerization in the presence of IBR120 or vehicle (DMSO) alone were compared.

[5] = tested on: human breast cancer cell line MCF7; test: XTT growth inhibition assay, MCF7; format: cell-based; conditions: MCF7, Mammary Gland Adenocarcinoma
Procedure: as §1, §2, §3

[6] = tested on: human Chronic Myelogenous Leukemia cell line K562; test: XTT growth inhibition assay, K562; format: cell-based
Procedure: as §1, §2, §3

[7] = tested on: human Cervical Cancer cell line HeLa; test: XTT growth inhibition assay, HeLa; format: cell-based; conditions: Cervix Adenocarcinoma
Procedure: as §1, §2, §3

[8] = tested on: human breast cancer cell line MDA-MB-435; test: XTT growth inhibition assay, MDA-MB-435; format: cell-based; conditions: MDA-MB-435, Melanoma/Mammary Gland Ductal Carcinoma
Procedure: as §1, §2, §3

[9] = tested on: triple-negative human breast cancer cell line MDA-MB-468; test: XTT cell killing / growth inhibition assay, MDA-MB-468; format: cell-based; conditions: for IC50: Homo sapiens
Procedure: as §1, §2
To test the possibility of inhibiting triple-negative breast cancer, the newly synthesized IBR2 analogues IBR101-124 were screened of their growth inhibition abilities using an XTT assay.

[10] = tested on: human breast cancer cell line MDA-MB-361; test: XTT growth inhibition assay, MDA-MB-361; format: cell-based; conditions: MDA-MB-361, Mammary Gland Adenocarcinoma
Procedure: as §1, §2, §3

[11] = tested on: human Glioblastoma cell line T98G; test: XTT growth inhibition assay, T98G; format: cell-based; conditions: Glioblastoma Multiforme
Procedure: as §1, §2, §3

[12] = tested on: human breast cancer cell line T47D; test: XTT growth inhibition assay, T47D; format: cell-based; conditions: Mammary Gland Ductal Carcinoma
Procedure: as §1, §2, §3

[13] = tested on: HR repair in HeLa-DR-GFP cells; test: HR assay (I-SceI inducible gene conversion, DR-GFP); format: cell-based, human; conditions: 10 or 20 μM, 24 hours, GFP positive cells by flow cytometry
Procedure: HR frequency was measured by two-colour fluorescence flow cytometric analysis using HeLa-DR-GFP cells. Fifty thousand events were analyzed for each experiment. Cells were treated with DMSO (mock), 10 or 20 μM of IBR2 or IBR120 as indicated for 24 hours after transient transfection with I-SceI expression vector pCABSce for 24 hours. HR frequencies were indicated by GFP positive cell percentages. […] DMSO. […] DMSO. […] DMSO. […] DMSO. […] GFP positive cell percentages by indicated treatments obtained from three independent experiments are summarized as means±SD.
Using previously described methods (Zhu et al., 2013, EMBO Mol. Med. 5:1-13; Pierce et al., 1999, Genes Dev. 13:2633-2638), HeLa cells stably expressing DR-GFP were transfected with the I-Sce expression vector pCBASce and treated with compounds or DMSO. Cells were then trypsinized and subjected to flow cytometry.
Inhibition of RAD51 function will lead to failure in HR repair. […] Upon I-SceI expression by transient transfection for 24 hours to induce DSBs, cells were treated with DMSO, 10 or 20 μM of IBR120 or IBR2 for another 24 hours and the GFP positive population resulting from successful recombination was measured by flow cytometry.

[14] = tested on: human breast cancer cell line Hs578-T; test: XTT growth inhibition assay, Hs578-T; format: cell-based; conditions: Hs-578T, Mammary Gland Carcinoma
Procedure: as §1, §2, §3

- IC50 ([2]; Homo sapiens, XTT assay, read-out: IC50 values in most tested cancer cell lines): 3 to 5 µM
- IC50 [3]: 4.7 ± 0.5 µM
- IC50 [4]: 3.5 ± 0.4 µM
- IC50 [5]: 3.1 ± 0.2 µM
- IC50 [6]: 3.6 ± 0.7 µM
- IC50 [7]: 3.6 ± 0.6 µM
- IC50 [8]: 4 ± 0.7 µM
- IC50 [10]: 4.5 ± 0.7 µM
- IC50 [11]: 9.5 ± 0.9 µM
- IC50 [12]: 6.3 ± 1.5 µM
- IC50 [14]: 4.9 ± 1 µM
SMILES: O=S(=O)(Cc1ccccc1)N1Cc2ccccc2[C@@H]1c1c[nH]c2ccccc12 [IBR120, (R)-3-(2-(benzylsulfonyl)isoindolin-1-yl)-1H-indole]
- IC50 [1]: > 30 µM
- difference between the IC50 values in normal and cancer cells ([2]; MCF10A versus cancer cell lines): approximately 10 fold
- RAD51 multimerization (in words) (RAD51): capable of disrupting RAD51 multimerization; also recorded: can inhibit RAD51 multimerization; also recorded: can disrupt RAD51 multimer formation in vitro; also recorded: inhibits RAD51 multimerization
- IC50 ([9]; 96 h, MDA-MB-468, XTT assay, four-day drug treatment, read-out: IC50): 3.1 µM
- IC50 ([9]; MDA-MB-468, growth inhibition, raw dataset for SAR analysis, read-out: pIC50 (converted)): 3.24 µM
- IC50 ([9]; MDA-MB-468, Mammary Gland Adenocarcinoma (Table 3, with spread), read-out: IC50): 3.1 ± 0.4 µM
- IC50 compared with that of the parental compound IBR2 (in words) ([9]; MDA-MB-468): significantly lower
- HR frequency / HR repair (in words) [13]: impairing homologous recombination repair; also recorded: significantly reduced; also recorded: greater depression of HR repair activity; also recorded: inhibit HR repair in cells; also recorded: dose dependently inhibits HR repair
